Assays:
[1] = tested on: Pseudomonas aeruginosa ST773 (NDM-1, OXA-395, PDC-16); experiment: Checkerboard MIC, fixed concentration of sBLI (Examples 18-23); type: cell-based
Source text: The antibiotics and serine β-lactamase-inhibitors (sBLIs) were purchased from the following suppliers: Ceftazidime (CAZ): Sigma-Aldrich; Cefepime (FEP): Sigma-Aldrich; Cefpodoxime (CEFP): MedChemExpress; Sulbactam (SUL): Sigma-Aldrich Avibactam (AVI): Biosynth; Vaborbactam (VAB): ABCR; Tazobactam (TAZ): Sigma-Aldrich; Taniborbactam (TAN): Sigma-Aldrich.
In each of Examples 3-23, the compound of Example 26 of WO 2018/033719 was employed as the zinc chelator. The following abbreviations are used in these examples: sBLI means serine-β-lactamase inhibitor; CFU means colony-forming unit, which is a group of microbes that grows from a single cell on a petri plate; DMSO means dimethyl sulfoxide; MHB means Mueller-Hinton broth; caMHB means cation-adjusted Mueller-Hinton broth; MIC means minimum inhibitory concentration—the lower the MIC, the more efficient the combination against the respective bacterial strain.
General Protocol 2 Used in Examples 11-23 Employing a Fixed Concentration of sBLI within Each Experiment:
(§1) Antimicrobial susceptibility testing (AST) by broth microdilution (MIC determination) was performed according to The European Committee on Antimicrobial Susceptibility Testing (EUCAST) guidelines (see Reading guide for broth microdilution Version 5.0, 2024: https://www.eucast.org).
Sterile clear round bottom polystyrene (non-treated) 96-well microplates (Corning 3788) were used for making serial two-fold dilutions of the antibiotic in cation-adjusted Mueller Hinton II broth (caMHB; Thermo Scientific, T3462, containing 29.4 μM Zn^2+ or MILLIPORE, 90922-500G, containing 5.6 μM Zn^2+), across the columns of the microtiter plate (128-0.06 μg/mL; columns 1-12).
The checkerboard plates were all modified by adding a serine β-lactamase inhibitor (sBLI) at a fixed concentration of 16 μg/mL. Additionally, the zinc chelator was added at various fixed concentrations. Samples were mixed so that all plates contained a control containing antibiotic alone (no sBLI, no zinc chelator), a sample containing antibiotic and sBLI (double combination; no zinc chelator), and a sample containing antibiotic, sBLI and zinc chelator (triple combination). All test wells used in each plate contained growth medium (caMHB), and inoculated bacteria at a final inoculum between 3-7×10^5 CFU/mL. […] Synergy for the triple combination (antibiotic, sBLI, and zinc chelator) was defined as when the MIC in any of the rows containing the zinc chelator in combination with antibiotic and sBLI (triple combination), was lower than for antibiotic alone and lower than for the antibiotic and sBLI double combination.
(§2) An X in rows 1-4 in the table indicates growth of the bacterial inoculum, while a blank cell indicates no growth. Concentrations (μg/mL) of CAZ are given in row 0. AVI and the zinc chelator were added in fixed concentrations (AVI at 16 μg/mL in rows 2-4, zinc chelator at 16 μg/mL in row 3 and at 8 μg/mL in row 4). As a control, the effect of CAZ alone was tested (row 1). All wells contained bacterial growth medium (caMHB, 29.4 μM Zn^2+) and were inoculated with the test bacterium. The grey cells indicate the CAZ MIC.
as §2, with “FEP” for “CAZ”, “SUL” for “AVI”, “(SUL” for “(AVI”
An X in rows 1-5 in the table indicates growth of the bacterial inoculum, while a blank cell indicates no growth. Concentrations (μg/mL) of CAZ are given in row 0. AVI and the zinc chelator were added in fixed concentrations (AVI at 16 μg/mL in rows 2-5, zinc chelator at 16 μg/mL in row 3, at 8 μg/mL in row 4, and at 4 μg/mL in row 5). […]

[2] = tested on: various bacterial strains harbouring resistance enzymes; experiment: MIC determination, checkerboard assays (summary statements); type: cell-based; settings: Examples 3-23
Experimental: Thus, in most of the experiments, a Fractional Inhibitory Concentration Index (FICI) could not be calculated, and the conclusion of synergy was made through visual reading of the bacterial growth in the wells in the combination experiment.
as §1
Sterile clear round bottom polystyrene (non-treated) 96-well microplates (Corning 3788) were used for making serial two-fold dilutions of the antibiotic and the serine sBLI in cation-adjusted Mueller Hinton II broth (caMHB; Thermo Scientific, T3462, containing 29.4 μM Zn^2+), across the columns of the microtiter plate (256-0.06 μg/mL; columns 1-12). The checkerboard plates were all made by keeping the sBLI at a fixed ratio relative to antibiotic (absolute concentrations of each, in μg/mL) to all wells containing sample in each plate. Additionally, a set of samples were included in each test plate, where the zinc chelator was added, at various fixed concentrations, of 16 μg/mL, 8 μg/mL and/or 4 μg/mL (as specified in each Example). All sample wells contained growth medium (caMHB), and inoculated bacteria at a final inoculum between 3-7×10^5 CFU/mL. […]

CN(C[C@H](O)[C@@H](O)[C@H](O)[C@H](O)CO)C(=O)c1ccc(CN(Cc2ccccn2)Cc2ccccn2)nc1 [zinc chelator]
synergy with the zinc chelator ([1]; zinc chelator 4 μg/mL, with FEP and AVI 16 μg/mL, caMHB 5.6 μM Zn2+): Synergy | synergy with the zinc chelator ([1]; zinc chelator 4 μg/mL, with FEP and SUL 16 μg/mL, caMHB 5.6 μM Zn2+): Synergy | synergy with the zinc chelator ([1]; zinc chelator 8 μg/mL, with CAZ and AVI 16 μg/mL, caMHB 5.6 μM Zn2+): Synergy | synergy with the zinc chelator ([1]; zinc chelator 8 μg/mL, with CAZ and AVI 16 μg/mL, caMHB 29.4 μM Zn2+): Synergy | synergy with the zinc chelator ([1]; zinc chelator 8 μg/mL, with FEP and AVI 16 μg/mL, caMHB 5.6 μM Zn2+): Synergy | synergy with the zinc chelator ([1]; zinc chelator 8 μg/mL, with FEP and SUL 16 μg/mL, caMHB 5.6 μM Zn2+): Synergy | synergy with the zinc chelator ([1]; zinc chelator 8 μg/mL, with FEP and TAZ 16 μg/mL, caMHB 5.6 μM Zn2+): Synergy | synergy with the zinc chelator ([1]; zinc chelator 16 μg/mL, with CAZ and AVI 16 μg/mL, caMHB 5.6 μM Zn2+): Synergy | synergy with the zinc chelator ([1]; zinc chelator 16 μg/mL, with CAZ and AVI 16 μg/mL, caMHB 29.4 μM Zn2+): Synergy | synergy with the zinc chelator ([1]; zinc chelator 16 μg/mL, with FEP and AVI 16 μg/mL, caMHB 5.6 μM Zn2+): Synergy | synergy with the zinc chelator ([1]; zinc chelator 16 μg/mL, with FEP and SUL 16 μg/mL, caMHB 5.6 μM Zn2+): Synergy | synergy with the zinc chelator ([1]; zinc chelator 16 μg/mL, with FEP and SUL 16 μg/mL, caMHB 29.4 μM Zn2+): Synergy | synergy with the zinc chelator ([1]; zinc chelator 16 μg/mL, with FEP and TAZ 16 μg/mL, caMHB 5.6 μM Zn2+): Synergy | intrinsic antibiotic effect [2]: neither the zinc chelator nor the sBLI have intrinsic antibiotic effect

From patent publication US20260325538A1, “THERAPY” (priority 2023, published 2026)
